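Results reflect a 48-hour exposure of cells in 96-well plates to compound at five concentrations. TGI: total growth inhibition.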
Experiments:
Experiment in all cases: NCI tumour cell line growth inhibition, 48 h
[1] = test system: DU-145 prostate
[2] = test system: SK-OV-3 ovarian
[3] = test system: ACHN renal
[4] = test system: SK-MEL-28 melanoma
[5] = test system: HCT-15 colon
[6] = test system: SF-295 CNS
[7] = test system: MCF7 breast

Structure (SMILES) | TGI [1] | TGI [2] | TGI [3] | TGI [4] | TGI [5] | TGI [6] | TGI [7]
C(/C=C(\Nc1ccccc1)c1ccc2ccccc2c1)=Nc1ccccc1 | 6.29 µM | 11.5 µM | 11.5 µM | 0.961 µM | 5.61 µM | 4.28 µM | 15.7 µM
CC(C)C1OC(=O)C(Cc2ccccc2)N(C)C(=O)C(C(C)C)OC(=O)C(Cc2ccccc2)N(C)C(=O)C(C(C)C)OC(=O)C(Cc2ccccc2)N(C)C1=O (stereo not given) | 3.03 µM | 2.16 µM | 1.64 µM | 2.41 µM | 2.61 µM | 1.79 µM | 1.79 µM
O=C(Cn1c(=O)oc2ccccc21)N(c1ccccc1)c1ccccc1 | > 100 µM | > 100 µM | > 100 µM | > 100 µM | > 100 µM | > 100 µM | > 100 µM
CCOC(=O)/C(C(=O)c1ccc[nH]1)=C1/CCCN1C | > 100 µM | > 100 µM | > 100 µM | > 100 µM | > 100 µM | > 100 µM | > 100 µM
CC(C)=CC(=O)c1[nH]c2ccccc2c1CC(=O)NCCc1cnc[nH]1 | > 100 µM | > 100 µM | > 100 µM | > 100 µM | > 100 µM | > 100 µM | > 100 µM
CC[C@@]1(O)C(=O)OCc2c1cc1n(c2=O)Cc2c-1nc1ccc(N)cc1c2CC[Si](C)(C)C | 1.68 µM | 1.63 µM |  | 13.8 µM | 14.2 µM | < 0.0417 µM | 0.39 µM
NC1CC(=O)c2c(I)sc(I)c21 (stereo not given) | > 55.1 µM | > 100 µM | 42.1 µM | 43.2 µM | 45.8 µM | 39.8 µM | > 67.7 µM
C/C(=C\COP(=O)(O)OP(=O)(O)O)CC/C=C(\C)CNc1c(F)c(F)c(F)c(F)c1F | > 100 µM | > 100 µM | > 100 µM | > 100 µM | > 100 µM | > 100 µM | > 100 µM
CCOc1c2c(cc3c1C(=O)c1c(OC)cccc1C3=O)C=C(OC)CC2 | > 25 µM | > 25 µM | > 25 µM | > 25 µM | > 25 µM | > 25 µM | > 25 µM
Cc1ccc2c(c1)CC1(Cc3cc(C)ccc3C1=O)C2=O | > 100 µM | > 100 µM | > 100 µM | > 100 µM | > 100 µM | > 100 µM | > 100 µM
COC(=O)c1sc2c(c1C(=O)OC)C(=Nc1ccc(OC)cc1)SC2=Nc1ccc(OC)cc1 | 1.69 µM | 3.37 µM | 2.51 µM | 2.85 µM | 1.66 µM | 3.42 µM | 2.47 µM
C=CCSC1=N/C(=C\c2ccc(C)cc2)C(=O)N1CC=C | > 100 µM | > 100 µM | > 100 µM | > 100 µM | > 100 µM | > 100 µM | 55.5 µM
CN(C)CCCn1c(-c2ccc(Br)cc2)csc1=Nc1ccccc1 |  | 40.4 µM | 37.7 µM | 53.3 µM | 71 µM | 25.4 µM | 54 µM
C1CCC(CC2CCC(NC3=NCCO3)CC2)CC1 (stereo not given) | 94.9 µM | 38.4 µM | 35.5 µM | 33.2 µM | 30.1 µM | 36 µM | 32.1 µM
Cc1csc(NCc2ccc(Cl)cc2)n1 | > 100 µM | > 100 µM | > 100 µM | > 100 µM | > 100 µM | > 100 µM | > 100 µM
COc1cccc(C2c3cc4c(cc3OC(NNS(=O)(=O)c3ccc(C)cc3)C2C)OCO4)c1O (stereo not given) | > 100 µM | > 100 µM | > 100 µM | 78.8 µM | > 100 µM | 94.6 µM | 51.2 µM
CC(=O)N(C(=O)CC(=O)N1N=C(C)C(N=Nc2cccc([N+](=O)[O-])c2)C1=O)c1ccc(Cl)cc1 (stereo not given) | > 10 µM | > 10 µM | > 10 µM | > 10 µM | > 10 µM | > 10 µM | > 10 µM
COC(=O)C(=O)C(C(=O)C(=O)Nc1cc(C)ccc1C)c1nc2ccccc2[nH]c1=O (stereo not given) | > 100 µM | > 100 µM | > 100 µM | > 100 µM | > 100 µM | > 100 µM | > 100 µM
C=CCN(C(C)=O)c1cc(OCc2ccccc2)c2c(c1)c(C)cn2S(=O)(=O)c1ccccc1 | > 100 µM | > 100 µM | 51.4 µM | > 100 µM | > 100 µM | > 100 µM | 31 µM
O=C1OCOC2(CCCC2)C1c1ccccc1 (stereo not given) | > 100 µM | > 100 µM | > 100 µM | > 100 µM | > 100 µM | > 100 µM | 
Cc1nc2nnc(CCCCCCCCc3nnc4nc(C)[nH]n34)n2[nH]1 | > 100 µM | > 100 µM | > 100 µM | > 100 µM | > 100 µM | > 100 µM | > 100 µM

Structure (SMILES) | TGI [1] | TGI [2] | TGI [3] | TGI [4] | TGI [5] | TGI [6] | TGI [7]
CSC(SC)=C(C#N)C(=O)Nc1ccc(Cl)cc1 | > 100 µM | > 100 µM |  | > 100 µM | > 100 µM |  | > 100 µM
CCn1c(=O)c2nc(SC)sc2n(-c2ccccc2)c1=S | > 100 µM | > 100 µM | > 100 µM | > 100 µM | > 100 µM | > 100 µM | > 100 µM
O=C1c2ccccc2CC12Cc1ccc3c(c1C2=O)CCCC3 (stereo not given) | > 100 µM | > 100 µM | > 100 µM | > 100 µM | > 100 µM | > 100 µM | > 100 µM
c1cc(CSP234N5CCN2CCN3CCN4CC5)cc(CSP234N5CCN2CCN3CCN4CC5)c1 | > 100 µM |  | > 100 µM | 44.6 µM | 70.8 µM | 46.2 µM | 68.6 µM
COC(=O)[C@@H]1CN(C(=O)Cc2ccccc2)C(=O)N1 | > 100 µM |  | > 100 µM | > 100 µM |  | > 100 µM | 
Clc1ccc(Cc2nc3cc4ccccc4cc3[nH]2)cc1Cl | 45.7 µM |  | 81.2 µM | 29.4 µM | > 100 µM |  | 67.3 µM
COc1ccc2cc(CNCCCCCCNC(=O)Nc3cccc4ccccc34)ccc2c1 | > 100 µM | > 100 µM | > 100 µM | > 100 µM | > 100 µM | > 100 µM | > 100 µM
Cc1n[nH]c(=O)c2c3c([nH]c12)-c1ccccc1C3 | > 100 µM | > 100 µM | > 100 µM | > 100 µM | > 100 µM | > 100 µM | > 100 µM
CC(NC(CC12CC3CC(CC(C3)C1)C2)C(N)=O)c1ccccc1 (stereo not given) | > 100 µM | > 100 µM | 57.6 µM | 40.4 µM | > 100 µM | 28.4 µM | > 100 µM
Cc1cccc(NC(=S)NNC(=O)c2cc(-c3ccccc3)nc3ccccc23)c1 | > 100 µM | 59.2 µM | > 100 µM | > 100 µM | > 100 µM |  | 57.2 µM
COc1ccc(Cl)cc1NC(=O)O/N=C(\Cl)C(C)C | 37.4 µM | 34.7 µM | 4.21 µM | 42.9 µM |  | 33.9 µM | 38.6 µM
Cc1ccc(-c2ccc3c(c2)Sc2ccccc2O3)n1C | > 41.5 µM | > 100 µM | > 100 µM | > 100 µM | > 100 µM | 0.799 µM | 
CCc1nnc2sc(-c3ccc(-c4ccccc4[N+](=O)[O-])o3)nn12 | > 100 µM | > 100 µM | > 100 µM |  | > 100 µM | > 100 µM | > 100 µM
O=c1[nH]nc(-c2cccc([N+](=O)[O-])c2)[nH]1 | > 100 µM |  | > 100 µM | > 100 µM | > 100 µM | > 100 µM | > 100 µM
CCOC(=O)c1c(NS(=O)(=O)c2ccccc2)sc2c1CCCC2 | > 100 µM |  | > 100 µM |  | > 100 µM | > 100 µM | > 100 µM
CCCCCCCC(=O)NC(C)(C)C(=O)NCC(=O)NC(CC(C)C)C(=O)NC(C)(C)C(=O)NCC(=O)NCC(=O)NC(CC(C)C)C(=O)NC(C)(C)C(=O)NCC(=O)NC(C(=O)NC(CO)CC(C)C)C(C)CC (stereo not given) | 9.53 µM | 7.61 µM | 8.75 µM | 7.32 µM | 10.3 µM | 7.76 µM | 
O=C1c2cccc3cc([N+](=O)[O-])cc(c23)C(=O)N1c1ccc(OCCN2CCCC2)cc1 | > 100 µM |  | 28.1 µM | 45.9 µM | 44.5 µM | 41.1 µM | 38.3 µM
COc1ccc(C(CC(=O)c2cccs2)C(=O)c2ccc3c(c2)OCO3)cc1 (stereo not given) | > 100 µM | > 100 µM | > 100 µM | > 100 µM | > 100 µM |  | > 100 µM
COc1ccc2nc(-c3ccc(N)cc3)sc2c1 |  | > 100 µM | > 100 µM | > 100 µM | > 100 µM | > 100 µM | > 100 µM
O=C(O)c1ccccc1Sc1ccc(C=C2NC(=S)N(c3ccccc3)C2=O)s1 | > 100 µM |  | > 100 µM | > 100 µM | > 100 µM | > 100 µM | > 100 µM
C#C[C@]1(O)CC[C@H]2[C@@H]3CCC4=C/C(=N/OC(=O)c5cccc6cc7ccccc7nc56)CC[C@@H]4[C@H]3CC[C@@]21CC | > 100 µM | > 100 µM | > 100 µM | > 100 µM | > 100 µM |  | > 100 µM

— PubChem BioAssay (NCI)
